How the values were obtained:
CRTH2 [1] = molecular target: T1, CRTH2 (Homo sapiens, UniProt Q9Y5Y4); assay: Human whole blood CD11b antagonist assay (CD11b expression in eosinophils); assay type: cell-based; set-up: endogenous in cells; host or cells: eosinophils in human whole blood; conditions: challenged with 10 nM 15R-Methyl-PGD2, read-out: CD11b Antag IC50(nM) [HuEos-HuWB-vs10nM15R]
T1 sequence (Q9Y5Y4 1-395): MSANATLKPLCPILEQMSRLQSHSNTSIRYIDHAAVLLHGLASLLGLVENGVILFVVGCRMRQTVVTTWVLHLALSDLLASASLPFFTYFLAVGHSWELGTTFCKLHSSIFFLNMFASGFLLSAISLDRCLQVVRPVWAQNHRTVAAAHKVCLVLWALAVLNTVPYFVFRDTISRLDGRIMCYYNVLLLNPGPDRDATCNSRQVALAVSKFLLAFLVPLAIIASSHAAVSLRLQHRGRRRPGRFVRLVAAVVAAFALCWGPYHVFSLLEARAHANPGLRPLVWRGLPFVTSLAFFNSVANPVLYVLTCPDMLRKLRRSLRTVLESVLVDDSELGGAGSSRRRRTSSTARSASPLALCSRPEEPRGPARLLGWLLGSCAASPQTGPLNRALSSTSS
Procedure: Human Whole Blood CD11B Antagonist Assay (Modified from Nicholson, et al. Pulmonary Pharmacology and Therapeutics: 20 (2007); 52-59).
The potential CRTH2 antagonist activity of certain compounds was tested in human whole blood using an assay that tests the ability of the compounds to block the CD11b expression in eosinophils by 15-R-methyl-PGD2. A CRTH2 antagonist should block CD11b expression by subsequently added 15-Methyl-PGD2. Human whole blood (200 μL) was incubated at 37° C. for 10 minutes in the presence of various concentrations of test compounds before being challenged with the agonist 15R-Methyl-PGD2 (10 nM). Reactions were terminated by the addition of ice-cold PBS+0.5% BSA+2 mMEDTA (1 mL) and centrifugation (300×g for 5 minutes at 4° C.) Cells were then incubated at 4° C. for 10 min in the presence of human IgG. Cells were then incubated for 30-45 min with a mixture of PE-Cy5-labeled mouse anti-human CD16 (10 ul; BD Biosciences) and FITC-labeled mouse anti-human CD11b (10 μL; Beckman Coulter.) After rinsing (1 mL ice-cold PBS+0.5% BSA+2 mMEDTA), red blood cells were lysed by the addition of 1 mL ice-cold H2O to the cell pellet for 30 sec-1 min immediately followed by the addition of 3.5% NaCl (300 μL.) Cells were then rinsed (2×-1 ml ice cold PBS+0.5% BSA+2 mMEDTA) and fixed in PBS containing 1% formaldehyde. The distribution of fluorescence intensities was measured by flow cytometry. Eosinophils were gated out on the basis of their granularity (high side scatter) and absence of CD-16. CD11b was then measured on this eosinophil population on the basis of fluorescence due to FITC.

CRTH2 [2] = molecular target: T1, CRTH2; assay: DPBS CD11b antagonist assay (CD11b expression in eosinophils); assay type: cell-based; conditions: challenged with 10 nM 15R-Methyl-PGD2, read-out: CD11b Antag IC50(nM) [HuEos-DPBS-vs10nM15R]
Procedure: DPBS CD11b Antagonist Assay.
The potential CRTH2 antagonist activity of certain compounds was tested using a CD11b expression assay using essentially the method described by Monneret et al. (J Pharmacol Exp Ther 304:349-55, 2003). Briefly, polymorphonuclear cells (0.5 ml; 10^6/ml cells) in PBS containing 0.9 mM CaCl2 and 0.5 mM MgCl2) were preincubated with various concentrations of test compounds at room temperature for 10 minutes before they were challenged with the agonist 15R-Methyl-PGD2 (10 nM). The incubations were terminated by the addition of ice-cold FACSFlow (BD Biosciences; Cat# 342003) and centrifugation (400 g for 5 minutes at 4° C.). The cells were then incubated for 30 minutes at 4° C. with a mixture of PE-labeled mouse anti-human VLA-4 (5 μl; BD Biosciences) and FITC-labeled mouse anti-human CD11b (10 μl; Beckman Coulter). The cells were then incubated with Optilyse C (0.25 ml; Beckman Coulter) for 15 minutes, centrifuged, and then fixed in PBS (0.4 ml; calcium and magnesium free) containing 1% formaldehyde. The distribution of fluorescence intensities among 60,000 cells was measured by flow cytometry. Eosinophils were gated out on the basis of their granularity (high side scatter) and labeling with VLA-4 (PE fluorescence). CD11b was then measured in the eosinophil region on the basis of fluorescence due to FITC. All data were corrected for the value obtained for the corresponding isotope control antibody.

Structure (SMILES)	IC50 (CRTH2 [1]) [nM]	IC50 (CRTH2 [2]) [nM]
Cc1c(Cc2ccccc2S(=O)(=O)c2ccccc2)cc(-c2ccccc2)n1CC(=O)O [I-6, 2-(2-methyl-5-phenyl-3-(2-(phenylsulfonyl)benzyl)-1H-pyrrol-1-yl)acetic acid]	100 to 500	< 5
Cc1c(Cc2ccccc2S(=O)(=O)N2CCCC2)c(C#N)c(C2CCCCC2)n1CC(=O)O [I-14, 2-(3-cyano-2-cyclohexyl-5-methyl-4-(2-(pyrrolidin-1-ylsulfonyl)benzyl)-1H-pyrrol-1-yl)acetic acid]	100 to 500	–
Cc1c(Cc2ccccc2S(=O)(=O)c2ccccc2)cc(-c2ccc(F)cc2)n1CC(=O)O [I-15, 2-(5-(4-fluorophenyl)-2-methyl-3-(2-(phenylsulfonyl)benzyl)-1H-pyrrol-1-yl)acetic acid]	100 to 500	–
Cc1c(Cc2ccccc2S(=O)(=O)N2CCCC2)cc(-c2ccccc2)n1CC(=O)O [I-16]	100 to 500	–
Cc1c(Cc2ccccc2S(=O)(=O)c2ccccc2)cc(-c2ccccn2)n1CC(=O)O [I-17, 2-(2-methyl-3-(2-(phenylsulfonyl)benzyl)-5-(pyridin-2-yl)-1H-pyrrol-1-yl)acetic acid]	100 to 500	–
Cc1c(Cc2ccccc2S(=O)(=O)c2ccccc2)cc(-c2ccccc2F)n1CC(=O)O [I-18, 2-(5-(2-fluorophenyl)-2-methyl-3-(2-(phenylsulfonyl)benzyl)-1H-pyrrol-1-yl)acetic acid]	> 500	–
Cc1c(Cc2ccc(S(=O)(=O)N3CCCC3)cc2)c(C)n(CC(=O)O)c1CCO [I-20, 2-(2-(2-hydroxyethyl)-3,5-dimethyl-4-(4-(pyrrolidin-1-ylsulfonyl)benzyl)-1H-pyrrol-1-yl)acetic acid]	–	> 500
Cc1c(Cc2ccccc2S(=O)(=O)c2ccccc2)cc(-c2ccc(C(F)(F)F)cc2)n1CC(=O)O [I-25, 2-(2-methyl-3-(2-(phenylsulfonyl)benzyl)-5-(4-(trifluoromethyl)phenyl)-1H-pyrrol-1-yl)acetic acid]	> 500	5 to 100
Cc1c(Cc2ccccc2S(=O)(=O)c2ccccc2)cc(-c2ccccc2C(F)(F)F)n1CC(=O)O [I-27, 2-(2-methyl-3-(2-(phenylsulfonyl)benzyl)-5-(2-(trifluoromethyl)phenyl)-1H-pyrrol-1-yl)acetic acid]	> 500	–
Cc1c(C#N)c(Cc2ccccc2S(=O)(=O)N2CCOCC2)c(C)n1CC(=O)O [I-46, 2-(3-cyano-2,5-dimethyl-4-(2-(morpholinosulfonyl)benzyl)-1H-pyrrol-1-yl)acetic acid]	5 to 100	5 to 100
CC(=O)c1c(Cc2ccccc2S(=O)(=O)c2ccccc2)c(C)n(CC(=O)O)c1C [I-52, 2-(3-acetyl-2,5-dimethyl-4-(2-(phenylsulfonyl)benzyl)-1H-pyrrol-1-yl)acetic acid]	5 to 100	< 5
CC(=O)c1c(Cc2ccccc2S(=O)(=O)N2CCCC2)c(C)n(CC(=O)O)c1C [I-53, 2-(3-acetyl-2,5-dimethyl-4-(2-(pyrrolidin-1-ylsulfonyl)benzyl)-1H-pyrrol-1-yl)acetic acid]	5 to 100	< 5
Cc1c(Cc2ccccc2S(=O)(=O)N2CCCC2)c(C(=O)c2ccccc2)c(C)n1CC(=O)O [I-55, 2-(3-benzoyl-2,5-dimethyl-4-(2-(pyrrolidin-1-ylsulfonyl)benzyl)-1H-pyrrol-1-yl)acetic acid]	5 to 100	< 5
Cc1cc(C(=O)c2ccccc2S(=O)(=O)N2CCOCC2)c(C)n1CC(=O)O [I-56, 2-(2,5-dimethyl-3-(2-(morpholinosulfonyl)benzoyl)-1H-pyrrol-1-yl)acetic acid]	100 to 500	> 500
Cc1c(Cc2ccccc2S(=O)(=O)N2CCCC2)c(-c2ccccc2)c(C)n1CC(=O)O [I-57, 2-(2,5-dimethyl-3-phenyl-4-(2-(pyrrolidin-1-ylsulfonyl)benzyl)-1H-pyrrol-1-yl)acetic acid]	5 to 100	< 5
Cc1c(C#N)c(CC(=O)O)c(C)n1Cc1ccccc1S(=O)(=O)N1CCCC1 [I-73, 2-(4-cyano-2,5-dimethyl-1-(2-(pyrrolidin-1-ylsulfonyl)benzyl)-1H-pyrrol-3-yl)acetic acid]	> 500	–

The remaining lines, values ahead:

IC50 (CRTH2 [1]) [nM]	IC50 (CRTH2 [2]) [nM]	Structure (SMILES)
< 5	–	Cc1c(Cc2ccccc2S(=O)(=O)c2ccccc2)cc(-c2ccncc2)n1CC(=O)O [I-1, 2-(2-methyl-3-(2-(phenylsulfonyl)benzyl)-5-(pyridin-4-yl)-1H-pyrrol-1-yl)acetic acid]
5 to 100	–	Cc1c(Cc2ccccc2S(=O)(=O)c2ccccc2)cc(-c2cccnc2)n1CC(=O)O [I-2, 2-(2-methyl-3-(2-(phenylsulfonyl)benzyl)-5-(pyridin-3-yl)-1H-pyrrol-1-yl)acetic acid]
5 to 100	–	Cc1c(Cc2ccccc2S(=O)(=O)N2CCOCC2)c(C#N)c(-c2ccccc2)n1CC(=O)O [I-3, 2-(3-cyano-5-methyl-4-(2-(morpholinosulfonyl)benzyl)-2-phenyl-1H-pyrrol-1-yl)acetic acid]
5 to 100	< 5	Cc1c(Cc2ccccc2S(=O)(=O)c2ccccc2)c(C#N)c(-c2ccccc2)n1CC(=O)O [I-4, 2-(3-cyano-5-methyl-2-phenyl-4-(2-(phenylsulfonyl)benzyl)-1H-pyrrol-1-yl)acetic acid]
5 to 100	–	Cc1c(Cc2ccccc2S(=O)(=O)c2ccccc2)cc(-c2cccc(F)c2)n1CC(=O)O [I-8, 2-(5-(3-fluorophenyl)-2-methyl-3-(2-(phenylsulfonyl)benzyl)-1H-pyrrol-1-yl)acetic acid]
5 to 100	5 to 100	Cc1cc(Cc2ccccc2S(=O)(=O)N2CCCC2)c(C)n1CC(=O)O [I-9, 2-(2,5-dimethyl-3-(2-(pyrrolidin-1-ylsulfonyl)benzyl)-1H-pyrrol-1-yl)acetic acid]
5 to 100	–	Cc1c(Cc2ccccc2S(=O)(=O)N2CCCC2)c(C#N)c(-c2ccccc2)n1CC(=O)O [I-11, 2-(3-cyano-5-methyl-2-phenyl-4-(2-(pyrrolidin-1-ylsulfonyl)benzyl)-1H-pyrrol-1-yl)acetic acid]
5 to 100	–	Cc1c(Cc2ccccc2S(=O)(=O)c2ccccc2)c(-c2ccccc2)c(-c2ccccc2)n1CC(=O)O [I-12, 2-(2-methyl-4,5-diphenyl-3-(2-(phenylsulfonyl)benzyl)-1H-pyrrol-1-yl)acetic acid]
5 to 100	–	Cc1c(Cc2ccccc2S(=O)(=O)N2CCOCC2)cc(-c2ccccc2)n1CC(=O)O [I-13, 2-(2-methyl-3-(2-(morpholinosulfonyl)benzyl)-5-phenyl-1H-pyrrol-1-yl)acetic acid]
5 to 100	< 5	Cc1c(C#N)c(Cc2ccccc2S(=O)(=O)c2ccccc2)c(C)n1CC(=O)O [I-23, 2-(3-cyano-2,5-dimethyl-4-(2-(phenylsulfonyl)benzyl)-1H-pyrrol-1-yl)acetic acid]
5 to 100	< 5	Cc1cc(Sc2ccccc2S(=O)(=O)N2CCOCC2)c(C)n1CC(=O)O [I-29, 2-(2,5-dimethyl-3-(2-(morpholinosulfonyl)phenylthio)-1H-pyrrol-1-yl)acetic acid]
5 to 100	< 5	Cc1c(C#N)c(Cc2ccccc2S(=O)(=O)N2CCCC2)c(C)n1CC(=O)O [I-32, 2-(3-cyano-2,5-dimethyl-4-(2-(pyrrolidin-1-ylsulfonyl)benzyl)-1H-pyrrol-1-yl)acetic acid]
